Target: human V1a receptor (Homo sapiens (Human), UniProt P37288)
Assay: human V1a receptor binding studies (3H-Vasopressin, SPA beads)
Conditions: membranes of HEK293 cells transiently transfected with human V1a receptor, Ki by Cheng-Prusoff
Protocol: The human V1a receptor was cloned by RT-PCR from total human liver RNA. The coding sequence was subcloned in an expression vector after sequencing to confirm the identity of the amplified sequence. […] Cell membranes were prepared from HEK293 cells transiently transfected with the expression vector and grown in 20 liter fermenters with the following protocol.
50 g of cells are re-suspended in 30 ml freshly prepared ice cold Lysis buffer ([…] HEPES. 1 mM EDTA, 10 mM MgCl2 adjusted to pH=7.4+complete cocktail of protease inhibitor (Roche Diagnostics)). Homogenized with Polytron for 1 min and sonicated on ice for 2×2 minutes at 80% intensity (Vibracell sonicator). The preparation is centrifuged 20 min at 500 g at 4° C., the pellet is discarded and the supernatant centrifuged 1 hour at 43'000 g at 4° C. (19'000 rpm). The pellet is re-suspended in 12.5 ml Lysis buffer+12.5 ml Sucrose 20% and homogenized using a Polytron for 1-2 min. The protein concentration is determined by the Bradford method and aliquots are stored at −80° C. until use. For binding studies 60 mg Yttrium silicate SPA beads (Amersham) are mixed with an aliquot of membrane in binding buffer (50 mM Tris, 120 mM NaCl, 5 mM KCl, 2 mM CaCl2, 10 mM MgCl) for 15 minutes with mixing. 50 μl of bead/membrane mixture is then added to each well of a 96 well plate, followed by […] of 4 nM 3H-Vasopressin (American Radiolabeled Chemicals). For total binding measurement 100 μl of binding buffer are added to the respective wells, for non-specific binding 100 μl of […] cold vasopressin and for compound testing 100 μl of a serial dilution of each compound in 2% DMSO. The plate is incubated 1 h at room temperature, centrifuged 1 min at 1000 g and counted on a Packard Top-Count. Non-specific binding counts are subtracted from each well and data is normalized to the maximum specific binding set at 100%. To calculate an IC 50 the curve is fitted using a non-linear regression model (XLfit) and the Ki is calculated using the Cheng-Prussoff equation.

Sequence of human V1a receptor (P37288 whole entry): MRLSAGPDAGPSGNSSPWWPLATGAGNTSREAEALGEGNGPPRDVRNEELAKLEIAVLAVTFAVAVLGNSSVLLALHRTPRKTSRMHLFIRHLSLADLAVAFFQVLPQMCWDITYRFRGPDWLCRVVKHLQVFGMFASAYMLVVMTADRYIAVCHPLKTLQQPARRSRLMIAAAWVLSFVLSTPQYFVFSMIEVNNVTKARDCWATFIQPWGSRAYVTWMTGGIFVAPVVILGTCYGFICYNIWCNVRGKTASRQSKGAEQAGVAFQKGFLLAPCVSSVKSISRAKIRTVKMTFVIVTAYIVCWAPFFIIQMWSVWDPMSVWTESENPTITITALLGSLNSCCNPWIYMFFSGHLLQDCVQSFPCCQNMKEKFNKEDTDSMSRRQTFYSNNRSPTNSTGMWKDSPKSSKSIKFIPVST

SMILES	pKi hV1a	Ki (read-out: pKi hV1a (converted))
O=C1N=C(N2CCC3(CC2)OCc2ccccc23)OC12Cc1ccccc1C2 [Example 1, 2′-(1′H,3H-spiro[2-benzofuran-1,4′-piperidin]-1′-yl)-1,3-dihydro-4′H-spiro[indene-2,5′-[1,3]oxazol]-4′-one]	9.5	–
CC1(C)OC2(CCN(C3=NC(=O)C4(Cc5cccc(O)c5C4)O3)CC2)c2cccnc21 (centres unmarked) [Example 69, 2′-(7,7-dimethyl-1′H,7H-spiro[furo[3,4-b]pyridine-5,4′-piperidin]-1′-yl)-4-hydroxy-1,3-dihydro-4′H-spiro[indene-2,5′-[1,3]oxazol]-4′-one]	9.3	–
CC1(C)OC2(CCN(C3=NC(=O)C4(Cc5ccccc5C4)O3)CC2)c2ncccc21 [Example 38, 2′-(5,5-dimethyl-1′H,5H-spiro[furo[3,4-b]pyridine-7,4′-piperidin]-1′-yl)-1,3-dihydro-4′H-spiro[indene-2,5′-[1,3]oxazol]-4′-one]	9.2	–
Cc1cnc2c(c1)C1(CCN(C3=NC(=O)C4(Cc5ccccc5C4)O3)CC1)OC2 [Example 52, 2′-(3-methyl-1′H,7H-spiro[furo[3,4-b]pyridine-5,4′-piperidin]-1′-yl)-1,3-dihydro-4′H-spiro[indene-2,5′-[1,3]oxazol]-4′-one]	8.3	–
Cc1cnc2c(c1)C(=O)OC21CCN(C2=NC(=O)C3(Cc4ccccc4C3)O2)CC1 [Example 45, 3-methyl-1′-(4′-oxo-1,3-dihydro-4′H-spiro[indene-2,5′-[1,3]oxazol]-2′-yl)-5H-spiro[furo[3,4-b]pyridine-7,4′-piperidin]-5-one]	7.6	–
O=C1OC2(CCN(C3=NC(=O)C4(CCc5ccccc5C4)O3)CC2)c2ccccc21 (centres unmarked) [Example 65, 1′-(4′-oxo-3,4-dihydro-1H,4′H-spiro[naphthalene-2,5′-[1,3]oxazol]-2′-yl)-1′H,3H-spiro[2-benzofuran-1,4′-piperidin]-3-one]	8.8	–
CC1(C)OC2(CCN(C3=NC(=O)C4(Cc5ccccc5C4)O3)CC2)c2ccc[n+]([O-])c21 [Example 70, 2′-(7,7-dimethyl-1-oxido-1′H,7H-spiro[furo[3,4-b)pyridine-5,4′-piperidin]-1′yl)-1,3-dihydro-4′H-spiro[indene-2,5′-[1,3]oxazol]-4′-one]	7.3	–
COc1ccc2c(c1)C1(CCN(C3=NC(=O)C4(Cc5ccccc5C4)O3)CC1)OC2=O [Example 10, 6-methoxy-1′-(4′-oxo-1,3-dihydro-4′H-spiro[indene-2,5′-[1,3]oxazol]-2′-yl)-3H-spiro[2-benzofuran-1,4′-piperidin]-3-one]	8.6	–
O=C1N=C(N2CCC3(CC2)OCc2ccccc23)OC12Cc1cnc(C(F)F)cc1C2 (centres unmarked) [Example 60, 3-(difluoromethyl)-2′-(1′H,3H-spiro[2-benzofuran-1,4′-piperidin]-1′-yl)-5,7-dihydro-4′H-spiro[cyclopenta[c]pyridine-6,5′-[1,3]oxazol]-4′-one]	7.7	–
CC1(C)OC2(CCN(C3=NC(=O)C4(Cc5ccccc5C4)O3)CC2)c2cc(O)cnc21 [Example 71, 2′-(3-hydroxy-7,7-dimethyl-1′H,7H-spiro[furo[3,4-b]pyridine-5,4′-piperidin]-1′-yl)-1,3-dihydro-4′H-spiro[indene-2,5′-[1,3]oxazol]-4′-one]	10.2	–
Cc1cccc2c1COC21CCN(C2=NC(=O)C3(Cc4ccccc4C3)O2)CC1 [Example 4]	8.2	–
COc1ccc2c(c1)CC1(C2)OC(N2CCC3(CC2)OC(C)(C)c2ncccc23)=NC1=O (centres unmarked) [Example 40, 2′-(7,7-dimethyl-1′H,7H-spiro[furo[3,4-b]pyridine-5,4′-piperidin]-1′-yl)-5-methoxy-1,3-dihydro-4′H-spiro[indene-2,5′-[1,3]oxazol]-4′-one]	8.3	–
Cc1cnc2c(c1)COC21CCN(C2=NC(=O)C3(Cc4ccccc4C3)O2)CC1 [Example 44, 2′-(3-methyl-1′H,5H-spiro[furo[3,4-b]pyridine-7,4′-piperidin]-1′-yl)-1,3-dihydro-4′H-spiro[indene-2,5′-[1,3]oxazol]-4′-one]	8.7	–
Cc1ccc2c(c1)C[C@@]1(C2)OC(N2CCC3(CC2)OC(=O)c2ccccc23)=NC1=O [Example 23, (+)-1′-[5-methyl-4′-oxo-1,3-dihydro-4′H-spiro[indene-2,5′-[1,3]oxazol]-2′-yl]-3H-spiro[2-benzofuran-1,4′-piperidin]-3-one]	7.3	–
Cc1ccc2c(c1)C1(CCN(C3=NC(=O)C4(Cc5ccccc5C4)O3)CC1)OC2=O [Example 7, 6-methyl-1′-(4′-oxo-1,3-dihydro-4′H-spiro[indene-2,5′-[1,3]oxazol]-2′-yl)-3H-spiro[2-benzofuran-1,4′-piperidin]-3-one]	8.8	–
Cc1cc2c(cc1C)CC1(C2)OC(N2CCC3(CC2)OCc2ccccc23)=NC1=O [Example 25, 5,6-dimethyl-2′-(1′H,3H-spiro[2-benzofuran-1,4′-piperidin]-1′-yl)-1,3-dihydro-4′H-spiro[indene-2,5′-[1,3]oxazol]-4′-one]	7.1	–
O=C1N=C(N2CCC3(CC2)OCc2ccccc23)O[C@]12CCc1ccccc12 [Example 19, (−)-2′-(1H,3H-spiro[2-benzofuran-1,4′-piperidin]-1′-yl)-2,3-dihydro-4′H-spiro[indene-1,5′-[1,3]oxazol]-4′-one]	7.6	–
COc1cc2c(cc1OC)C1(CCN(C3=NC(=O)C4(Cc5ccccc5C4)O3)CC1)OC2=O [Example 12, 5,6-dimethoxy-1′-(4′-oxo-1,3-dihydro-4′H-spiro[indene-2,5′-[1,3]oxazol)-2′-yl)-3H-spiro[2-benzofuran-1,4′-piperidin]-3-one]	7.5	–
Cc1ccc2c(n1)COC21CCN(C2=NC(=O)C3(Cc4ccccc4C3)O2)CC1 [Example 48, 2′-(2-methyl-1′H,7H-spiro[furo[3,4-b]pyridine-5,4′-piperidin]-1′-yl)-1,3-dihydro-4′H-spiro[indene-2,5′-[1,3]oxazol]-4′-one]	7.9	–
O=C1N=C(N2CCC3(CC2)OCc2ccccc23)OC12Cc1cnc(CCl)cc1C2 (centres unmarked) [Example 57, 3-(chloromethyl)-2′-(1′H,3H-spiro[2-benzofuran-1,4′-piperidin]-1′-yl)-5,7-dihydro-4′H-spiro[cyclopenta[c]pyridine-6,5′-[1,3]oxazol]-4′-one]	6.3	–
COc1ccc2c(c1)C(=O)OC21CCN(C2=NC(=O)C3(Cc4ccccc4C3)O2)CC1 [Example 8, 5-methoxy-1′-(4′-oxo-1,3-dihydro-4′H-spiro[indene-2,5′-[1,3]oxazol]-2′-yl)-3H-spiro[2-benzofuran-1,4′-piperidin]-3-one]	8.5	–
O=C1OC2(CCN(C3=NC(=O)C4(Cc5ccccc5C4)O3)CC2)c2ccc(O)cc21 [Example 9, 5-hydroxy-1′-(4′-oxo-1,3-dihydro-4′H-spiro[indene-2,5′-[1,3]oxazol]-2′-yl)-3H-spiro[2-benzofuran-1,4′-piperidin]-3-one]	9.7	–
O=C1N=C(N2CCC3(CC2)OCc2ccccc23)OC12Cc1cnc(CF)cc1C2 (centres unmarked) [Example 59, 3-(fluoromethyl)-2′-(1′H,3H-spiro[2-benzofuran-1,4′-piperidin]-1′-yl)-5,7-dihydro-4′H-spiro[cyclopenta[c]pyridine-6,5′-[1,3]oxazol]-4′-one]	7.6	–
O=C1OC2(CCN(C3=NC(=O)[C@]4(CCc5ccccc5C4)O3)CC2)c2ccccc21 (single isomer, unassigned; enantiomer a) [Example 66, 1′-[4′-oxo-3,4-dihydro-1H,4′H-spiro[naphthalene-2,5′-[1,3]oxazol]-2′-yl]-1′H,3H-spiro[2-benzofuran-1,4′-piperidin]-3-one enantiomer A]	–	0.794 nM
C[Si](C)(C)c1ccc2c(c1)CC1(C2)OC(N2CCC3(CC2)OCc2ccccc23)=NC1=O (centres unmarked) [Example 29, 2′-(1′H,3H-spiro[2-benzofuran-1,4′-piperidin]-1′-yl)-5-(trimethylsilyl)-1,3-dihydro-4′H-spiro[indene-2,5′-[1,3]oxazol]-4′-one]	6.2	–
Cc1cccc2c1C(=O)OC21CCN(C2=NC(=O)C3(Cc4ccccc4C3)O2)CC1 [Example 5, 4-methyl-1′-(4′-oxo-1,3-dihydro-4′H-spiro[indene-2,5′-[1,3]oxazol]-2′-yl)-3H-spiro[2-benzofuran-1,4′-piperidin]-3-one]	8.0	–
